The values below come from patent US20240365784A1, “AZOLE COMPOUNDS FOR CONTROLLING INVERTEBRATE PESTS” (FMC Corporation, priority 2021, published 2024).

Assay in all cases: whole plant or invertebrate
Assay type in all cases: in vivo

For experiment [1], the system named is cotton melon aphid (Aphis gossypii (Glover)). The note with it: 144 h, okra plant, assessed after 6 days; for mortality at 50 ppm: sprayed at 50 ppm; for mortality at 10 ppm: tested at 10 ppm. How it is done:
(§1) Test compounds were formulated using a solution containing 10% acetone, 90% water and 300 ppm Activator 90® non-ionic surfactant (Loveland Products, Loveland, Colorado, USA). The formulated compounds were applied in 1 mL of liquid through an atomizer nozzle positioned 1.27 cm (0.5 inches) above the top of each test unit. Test compounds were sprayed at the rates indicated, and each test was replicated three times.
For evaluating control of cotton melon aphid (Aphis gossypii (Glover)) through contact and/or systemic means, the test unit consisted of a small open container with a 5-day-old okra plant inside. This was pre-infested with 30-40 insects on a piece of leaf according to the cut-leaf method, and the soil of the test unit was covered with a layer of sand.
[…] After spraying, the test units were maintained in a growth chamber for 6 days at 19° C. and 70% relative humidity. Each test unit was then visually assessed for insect mortality.

In experiment [2] the test system is corn planthopper (Peregrinus maidis (Ashmead)). The note with it: 144 h, corn plant, nymphs, assessed after 6 days; for mortality at 10 ppm: sprayed at 10 ppm; for mortality at 50 ppm: sprayed at 50 ppm. As for the experimental part:
as §1
For evaluating control of corn planthopper (Peregrinus maidis (Ashmead)) through contact and/or systemic means, the test unit consisted of a small open container with a 3-4-day-old corn (maize) plant inside. White sand was added to the top of the soil prior to application of the test compound.
Test compounds were formulated and sprayed at 250 and/or 50 ppm and/or 10 ppm. After spraying of the formulated test compound, the test units were allowed to dry for 1 h before they were post-infested with ˜15-20 nymphs (18-to-21-day-old). A black, screened cap was placed on the top of each test unit, and the test units were held for 6 days in a growth chamber at 22-24° C. and 50-70% relative humidity. Each test unit was then visually assessed for insect mortality.

In experiment [3] the test system is green peach aphid (Myzus persicae (Sulzer)). Conditions: 144 h, sprayed at 50 ppm, radish plant, assessed after 6 days. How it is done:
as §1
For evaluating control of green peach aphid (Myzus persicae (Sulzer)) through contact and/or systemic means, the test unit consisted of a small open container with a 12-15-day-old radish plant inside. This was pre-infested by placing on a leaf of the test plant 30-40 aphids on a piece of leaf excised from a culture plant (cut-leaf method). The aphids moved onto the test plant as the leaf piece desiccated. After pre-infestation, the soil of the test unit was covered with a layer of sand.
Test compounds were formulated and sprayed at 250 and/or 50 ppm. After spraying of the formulated test compound, each test unit was allowed to dry for 1 hour and then a black, screened cap was placed on top. The test units were held for 6 days in a growth chamber at 19-21° C. and 50-70% relative humidity. Each test unit was then visually assessed for insect mortality.

The test system of experiment [4] is sweetpotato whitefly (Bemisia tabaci (Gennadius)). The note with it: 312 h, cotton plant infested with eggs, assessed after 13 days; for mortality at 50 ppm: sprayed at 50 ppm; for mortality at 10 ppm: tested at 10 ppm. How it is done: as §1
For evaluating control of the sweetpotato whitefly (Bemisia tabaci (Gennadius)) through contact and/or systemic means, the test unit consisted of a small open container with a 12-14-day-old cotton plant inside. Prior to the spray application, both cotyledons were removed from the plant, leaving one true leaf for the assay. Adult whiteflies were allowed to lay eggs on the plant and then were removed from the test unit. Cotton plants infested with at least 15 eggs were submitted to the test for spraying.
[…] After spraying, the test units were allowed to dry for 1 hour. The cylinders were then removed, and the units were taken to a growth chamber and held for 13 days at 28° C. and 50-70% relative humidity. Each test unit was then visually assessed for insect mortality.

Broadly, the mortality is the percentage killed. High values mean a strong lethal effect, low ones a weak lethal effect. In the case of `Fc1cc(Cc2c(Cl)cncc2-n2nccn2)ccc1C(F)(F)F` [Compound 72], the mortality at 50 ppm in experiment [1] was at least 80%; in experiment [2] it was at least 80%; in experiment [3], at least 80%; in experiment [4], at least 70%. Moreover, the mortality at 10 ppm in experiment [2] was at least 80%.

Consider `FC(F)Oc1ccc(Cc2c(Cl)cncc2-n2cccn2)cc1` [Compound 45], for which the values for the mortality at 50 ppm in experiment [1], in experiment [2] and in experiment [4] were at least 80%, at least 80% and at least 70%, respectively. In experiment [2], this compound had a mortality at 10 ppm of at least 80%.

In the case of `Fc1cncc(-c2nccs2)c1Cc1ccc(OC(F)(F)F)cc1` [Compound 40], the results for the mortality at 50 ppm in experiment [1], in experiment [2] and in experiment [4] were at least 80%, at least 80% and at least 70%, respectively. The mortality at 10 ppm in experiment [1] was at least 80%; in experiment [2], at least 80%; in experiment [4], at least 70%.

`CC(c1ccc(SC(F)(F)F)cc1)c1c(Cl)cncc1-n1cncn1` (stereo not shown) [Compound 51]: the mortality at 50 ppm in experiment [1] is at least 80%; in experiment [2], at least 80%; in experiment [3] it was at least 80%; in experiment [4], at least 70%.

With `FC(F)(F)Sc1ccc(Cc2ccncc2-n2nccn2)cc1` [Compound 23], the mortality at 50 ppm in experiment [1] is at least 80%; in experiment [2], at least 80%; in experiment [3] it was at least 80%; in experiment [4], at least 70%. The same compound came in with a mortality at 10 ppm in experiment [2] of at least 80%.

Take `FC(F)Oc1ccc(Cc2c(Cl)cncc2-n2nccn2)cc1` [Compound 46]: the mortality at 50 ppm is at least 80% in experiment [1], at least 80% in experiment [2] and at least 70% in experiment [4]. Moreover, the mortality at 10 ppm in experiment [2] was at least 80%; in experiment [4], at least 70%.

Regarding `FC(F)(F)Oc1ccc(Cc2c(Cl)cncc2-n2nccn2)cc1Cl` [Compound 71], the mortality at 50 ppm in experiment [1] was at least 80%; in experiment [2], at least 80%; in experiment [3], at least 80%; in experiment [4], at least 70%. Besides, the results for the mortality at 10 ppm in experiment [2] and in experiment [4] were at least 80% and at least 70%, respectively.

As for `FC(F)(F)Oc1ccc(Cc2c(Br)cncc2-n2nccn2)cc1` [Compound 15], the mortality at 50 ppm in experiment [1] was at least 80%; in experiment [3] it was at least 80%; in experiment [4] it was at least 70%.

For `Fc1cc(Cc2c(F)cncc2-n2nccn2)ccc1OC(F)(F)F` [Compound 66], the mortality at 50 ppm in experiment [1] is at least 80%; in experiment [2], at least 80%; in experiment [4], at least 70%. In addition, the mortality at 10 ppm in experiment [1] and in experiment [2] was at least 80% each time.

In the case of `FC(F)(F)Oc1ccc(Cc2c(Cl)cncc2-n2nccn2)cc1Br` [Compound 68], the mortality at 10 ppm in experiment [2] is at least 80%; in experiment [4] it was at least 70%. Also, the results for the mortality at 50 ppm in experiment [2], in experiment [3] and in experiment [4] were at least 80%, at least 80% and at least 70%, respectively.

As to `CCC(c1ccc(SC(F)(F)F)cc1)c1c(F)cncc1-n1nccn1` (stereo not shown) [Compound 57], the values for the mortality at 50 ppm in experiment [1], in experiment [2] and in experiment [4] were at least 80%, at least 80% and at least 70%, respectively. For the same compound, the mortality at 10 ppm was at least 80% in experiment [2] and at least 70% in experiment [4].

`[O-][S+](c1ccc(Cc2c(Cl)cncc2-n2nccn2)cc1)C(F)(F)F` (stereo not shown) [Compound 22]: the mortality at 50 ppm in experiment [1] is at least 80%; in experiment [3], at least 80%; in experiment [4], at least 70%.

As to `Fc1cc(Cc2c(F)cncc2-n2nccn2)ccc1C(F)(F)F` [Compound 73], the mortality at 50 ppm in experiment [1] and in experiment [2] was at least 80% in each case. For the same compound, the mortality at 10 ppm in experiment [1] and in experiment [2] was at least 80% throughout.

Regarding `FC(F)(F)Oc1ccc(Cc2ccncc2-n2nccn2)cc1` [Compound 16], the results for the mortality at 50 ppm in experiment [1], in experiment [2] and in experiment [4] were at least 80%, at least 80% and at least 70%, respectively. The mortality at 10 ppm in experiment [1] is at least 80%.

Regarding `CC(c1ccc(SC(F)(F)F)cc1)c1c(F)cncc1-c1nccs1` (stereo not shown) [Compound 54], the mortality at 50 ppm was at least 80% in experiment [1], at least 80% in experiment [2] and at least 70% in experiment [4]. Also, in experiment [2], the mortality at 10 ppm is at least 80%.

As to `CC(c1ccc(SC(F)(F)F)cc1)c1c(F)cncc1-n1cccn1` (stereo not shown) [Compound 50], the mortality at 50 ppm in experiment [1] and in experiment [2] was at least 80% each time.

Regarding `FC(F)(F)Sc1ccc(Cc2c(Cl)cncc2-c2nccs2)cc1` [Compound 35], the mortality at 50 ppm in experiment [1] is at least 80%; in experiment [2], at least 80%; in experiment [4], at least 70%.

For `Fc1cncc(-n2nccn2)c1Cc1cccc(OC(F)(F)C(F)F)c1` [Compound 65], the mortality at 50 ppm in experiment [1] and in experiment [2] was at least 80% throughout.

`Fc1cncc(-c2ncco2)c1Cc1ccc(OC(F)(F)F)cc1` [Compound 41]: the mortality at 50 ppm in experiment [1] and in experiment [2] was at least 80% throughout. Besides, the mortality at 10 ppm in experiment [1] and in experiment [2] was at least 80% in each case.

With `FC(F)(F)Sc1ccc(Cc2c(Cl)cncc2-n2ccnn2)cc1` [Compound 6], the mortality at 50 ppm is at least 80% in experiment [2] and at least 70% in experiment [4].

As for `FC(F)(F)Oc1ccc(Cc2c(I)cncc2-n2nccn2)cc1` [Compound 17], the mortality at 50 ppm in experiment [1] is at least 80%; in experiment [4], at least 70%.

For `CC(c1ccc(SC(F)(F)F)cc1)c1c(F)cncc1-n1cncn1` (stereo not shown) [Compound 52], the mortality at 50 ppm was at least 80% in experiment [1], at least 80% in experiment [2], at least 80% in experiment [3] and at least 70% in experiment [4].

As for `FC(F)(F)Sc1ccc(Cc2c(Cl)cncc2-c2ncco2)cc1` [Compound 37], in experiment [2], the mortality at 50 ppm was at least 80%.

In the case of `CCC(c1ccc(OC(F)(F)F)cc1)c1c(F)cncc1-n1nccn1` (stereo not shown) [Compound 60], the figures for the mortality at 50 ppm in experiment [1], in experiment [2] and in experiment [4] were at least 80%, at least 80% and at least 70%, respectively. Besides, the mortality at 10 ppm in experiment [4] is at least 70%.

As for `[O-][S+](c1ccc(Cc2c(F)cncc2-n2nccn2)cc1)C(F)(F)F` (stereo not shown) [Compound 18], the mortality at 50 ppm in experiment [1] is at least 80%; in experiment [2], at least 80%; in experiment [3] it was at least 80%; in experiment [4], at least 70%.

On to `FC(F)(F)Oc1ccc(Cc2c(Cl)cncc2-n2nccn2)cc1` [Compound 12], for which the mortality at 50 ppm in experiment [1], in experiment [2] and in experiment [3] was at least 80% each time. This compound returned a mortality at 10 ppm in experiment [2] of at least 80%.

As for `CC(c1ccc(SC(F)(F)F)cc1)c1c(F)cncc1-n1ccnn1` (stereo not shown) [Compound 11], the mortality at 50 ppm in experiment [1] and in experiment [2] was at least 80% each time.

Turning to `CC(c1ccc(SC(F)(F)F)cc1)c1c(Cl)cncc1-n1nccn1` (stereo not shown) [Compound 14], the mortality at 50 ppm was at least 80% in experiment [1], at least 80% in experiment [3] and at least 70% in experiment [4].

In experiment [1], `Fc1cncc(-c2ncco2)c1Cc1ccc(SC(F)(F)F)cc1` [Compound 30] yielded a mortality at 50 ppm of at least 80% and a mortality at 10 ppm of at least 80%. For the same compound, in experiment [2], the mortality at 10 ppm is at least 80% and the mortality at 50 ppm is at least 80%.
